Laboratory results reported in patent US6355799B1, “Substituted benzene compounds, process for their preparation, and herbicidal and defoliant compositions containing them” (ISK Americas Incorporated, priority 1997, dated 2002).

Columns and labels:
Type in all cases: in vivo
[1] = test system: redroot pigweed (Amaranthus retroflexus, AMARE); assay: Pre-emerge test, greenhouse herbicide activity screening; conditions: rated 14 days after application, 0 = no damage, 100 = complete death
Outline: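 Herbicidal damage is scored 0 (none) to 100 (complete plant death) two weeks after a simulated field spray. Rates span 15–1000 g ai/ha, delivered in acetone at 187 l/ha. For post-emergence treatments, plants have 2–3 leaves and the spray carries 0.25% v/v non-ionic surfactant.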

[2] = test system: lambsquarters (Chenopodium album, CHEAL); assay: as above; conditions: rated 14 days after application, 0 = no damage, 100 = complete death
Outline: (§1)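 Applied at 15–1000 g ai/ha from acetone in 187 l/ha spray volume. Post-emergence applications included 0.25% v/v non-ionic surfactant and reached plants sown 8–21 days before. Pre-emergence applications were incorporated by surface watering. Efficacy or crop damage was rated on a 0–100 scale after 14 days.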

[3] = test system: velvetleaf (Abutilon theophrasti, ABUTH); assay: as above; conditions: rated 14 days after application, 0 = no damage, 100 = complete death
Outline: as §1

[4] = test system: johnsongrass (Sorghum halepense, SORHA); assay: as above; conditions: rated 14 days after application, 0 = no damage, 100 = complete death
Outline: as §1

[5] = test system: common ragweed (Ambrosia artemisizfolia L., AMBEL); assay: as above; conditions: rated 14 days after application, 0 = no damage, 100 = complete death
Outline: as §1

[6] = test system: sicklepod (Cassia obtusifolia, CASOB); assay: as above; conditions: rated 14 days after application, 0 = no damage, 100 = complete death
Outline: as §1

[7] = test system: ivyleaf morningglory (Ipomoea hederacea, IPOHE); assay: as above; conditions: rated 14 days after application, 0 = no damage, 100 = complete death
Outline: as §1

[8] = test system: green foxtail (Setaria viridis, SETVI); assay: as above; conditions: rated 14 days after application, 0 = no damage, 100 = complete death
Outline: as §1

[9] = test system: large crabgrass (Digitaria sanguinalis, DIGSA); assay: as above; conditions: rated 14 days after application, 0 = no damage, 100 = complete death
Outline: as §1

[10] = test system: barnyardgrass (Echinochloa crus-galli, ECHCG); assay: as above; conditions: rated 14 days after application, 0 = no damage, 100 = complete death
Outline: as §1

[11] = test system: redroot pigweed (Amaranthus retroflexus, AMARE); assay: Post-emerge test, greenhouse herbicide activity screening; conditions: post-emerge, 14 days after application, rating scale 0-100
Outline: (§2)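 Compounds in acetone were track-sprayed at 187 l/ha, 15–1000 g ai/ha, onto sandy loam pots. Pre-emerge seeds were sown one day before spraying, with surface watering afterwards. Post-emerge plants were at the 2–3 leaf stage and sprayed with 0.25% v/v non-ionic surfactant. Injury was rated 0–100 at 14 days.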

[12] = test system: lambsquarters (Chenopodium album, CHEAL); assay: as above; conditions: post-emerge, 14 days after application, rating scale 0-100
Outline: as §2

[13] = test system: velvetleaf (Abutilon theophrasti, ABUTH); assay: as above; conditions: post-emerge, 14 days after application, rating scale 0-100
Outline: as §2

[14] = test system: johnsongrass (Sorghum halepense, SORHA); assay: as above; conditions: post-emerge, 14 days after application, rating scale 0-100
Outline: as §2

[15] = test system: common ragweed (Ambrosia artemisizfolia L., AMBEL); assay: as above; conditions: post-emerge, 14 days after application, rating scale 0-100
Outline: as §2

[16] = test system: sicklepod (Cassia obtusifolia, CASOB); assay: as above; conditions: post-emerge, 14 days after application, rating scale 0-100
Outline: as §2

[17] = test system: ivyleaf morningglory (Ipomoea hederacea, IPOHE); assay: as above; conditions: post-emerge, 14 days after application, rating scale 0-100
Outline: as §2

[18] = test system: large crabgrass (Digitaria sanguinalis, DIGSA); assay: as above; conditions: post-emerge, 14 days after application, rating scale 0-100
Outline: as §2

[19] = test system: barnyardgrass (Echinochloa crus-galli, ECHCG); assay: as above; conditions: post-emerge, 14 days after application, rating scale 0-100
Outline: as §2

[20] = test system: field corn (Zea mays L., var. Dekalb 535, CORN); assay: Post-emerge test, crop safety; conditions: post-emerge, 14 days after application, rating scale 0-100
Outline: as §1

[21] = test system: upland rice (Oryza sp., var. Tebonnet, RICE); assay: Post-emerge test, crop safety; conditions: post-emerge, 14 days after application, rating scale 0-100
Outline: as §1

[22] = test system: field corn (Zea mays L., var. Dekalb 535, CORN); assay: Pre-emerge test, crop safety; conditions: rated 14 days after application, 0 = no damage, 100 = complete death
Outline: (§3)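 Plants grown in 10 cm pots of sandy loam mix received acetone-dissolved compounds through a moving flat-fan nozzle. Doses ranged from 15 to 1000 g ai/ha. Pre-emerge pots were seeded one day earlier, post-emerge pots 8–21 days earlier. Fourteen days on, each pot was graded 0–100 for damage.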

[23] = test system: upland rice (Oryza sp., var. Tebonnet, RICE); assay: Pre-emerge test, crop safety; conditions: rated 14 days after application, 0 = no damage, 100 = complete death
Outline: as §3

## COc1c(Cl)cc(F)c(-n2c(=O)cc(C(F)(F)F)n(C)c2=O)c1NC(=O)c1cccnc1 [2-98]
[1]; 63 g ai/ha
  Pre-emerge Herbicidal Activity, phytotoxicity rating (0-100), AMARE: 100
[1]; 250 g ai/ha
  Pre-emerge Herbicidal Activity, phytotoxicity rating (0-100), AMARE: 100
[2]; 63 g ai/ha
  Pre-emerge Herbicidal Activity, phytotoxicity rating (0-100), CHEAL: 100
[2]; 250 g ai/ha
  Pre-emerge Herbicidal Activity, phytotoxicity rating (0-100), CHEAL: 100
[3]; 63 g ai/ha
  Pre-emerge Herbicidal Activity, phytotoxicity rating (0-100), ABUTH: 100
[3]; 250 g ai/ha
  Pre-emerge Herbicidal Activity, phytotoxicity rating (0-100), ABUTH: 100
[4]; 63 g ai/ha
  Pre-emerge Herbicidal Activity, phytotoxicity rating (0-100), SORHA: 30
[4]; 250 g ai/ha
  Pre-emerge Herbicidal Activity, phytotoxicity rating (0-100), SORHA: 95
[5]; 63 g ai/ha
  Pre-emerge Herbicidal Activity, phytotoxicity rating (0-100), AMBEL: 100
[5]; 250 g ai/ha
  Pre-emerge Herbicidal Activity, phytotoxicity rating (0-100), AMBEL: 100
[6]; 63 g ai/ha
  Pre-emerge Herbicidal Activity, phytotoxicity rating (0-100), CASOB: 100
[6]; 250 g ai/ha
  Pre-emerge Herbicidal Activity, phytotoxicity rating (0-100), CASOB: 100
[7]; 63 g ai/ha
  Pre-emerge Herbicidal Activity, phytotoxicity rating (0-100), IPOHE: 100
[7]; 250 g ai/ha
  Pre-emerge Herbicidal Activity, phytotoxicity rating (0-100), IPOHE: 100
[8]; 63 g ai/ha
  Pre-emerge Herbicidal Activity, phytotoxicity rating (0-100), SETVI: 80
[8]; 250 g ai/ha
  Pre-emerge Herbicidal Activity, phytotoxicity rating (0-100), SETVI: 100
[9]; 63 g ai/ha
  Pre-emerge Herbicidal Activity, phytotoxicity rating (0-100), DIGSA: 40
[9]; 250 g ai/ha
  Pre-emerge Herbicidal Activity, phytotoxicity rating (0-100), DIGSA: 95
[10]; 63 g ai/ha
  Pre-emerge Herbicidal Activity, phytotoxicity rating (0-100), ECHCG: 30
[10]; 250 g ai/ha
  Pre-emerge Herbicidal Activity, phytotoxicity rating (0-100), ECHCG: 100
[11]; 63 g ai/ha
  phytotoxicity rating AMARE: 75
[11]; 250 g ai/ha
  phytotoxicity rating AMARE: 100
[12]; 63 g ai/ha
  phytotoxicity rating CHEAL: 70
[12]; 250 g ai/ha
  phytotoxicity rating CHEAL: 90
[13]; 63 g ai/ha
  phytotoxicity rating ABUTH: 100
[13]; 250 g ai/ha
  phytotoxicity rating ABUTH: 100
[14]; 63 g ai/ha
  phytotoxicity rating SORHA: 0
[14]; 250 g ai/ha
  phytotoxicity rating SORHA: 90
[15]; 63 g ai/ha
  phytotoxicity rating AMBEL: 80
[15]; 250 g ai/ha
  phytotoxicity rating AMBEL: 100
[16]; 63 g ai/ha
  phytotoxicity rating CASOB: 100
[16]; 250 g ai/ha
  phytotoxicity rating CASOB: 100
[17]; 63 g ai/ha
  phytotoxicity rating IPOHE: 100
[17]; 250 g ai/ha
  phytotoxicity rating IPOHE: 100
[18]; 63 g ai/ha
  phytotoxicity rating DIGSA: 0
[18]; 250 g ai/ha
  phytotoxicity rating DIGSA: 50
[19]; 63 g ai/ha
  phytotoxicity rating ECHCG: 0
[19]; 250 g ai/ha
  phytotoxicity rating ECHCG: 20
[20]; 63 g ai/ha
  phytotoxicity rating CORN: 20
[20]; 250 g ai/ha
  phytotoxicity rating CORN: 90
[21]; 63 g ai/ha
  phytotoxicity rating RICE: 40
[21]; 250 g ai/ha
  phytotoxicity rating RICE: 90
[22]; 63 g ai/ha
  Pre-emerge phytotoxicity rating (0-100), crop damage, CORN: 70
[22]; 250 g ai/ha
  Pre-emerge phytotoxicity rating (0-100), crop damage, CORN: 90
[23]; 63 g ai/ha
  Pre-emerge phytotoxicity rating (0-100), crop damage, RICE: 60
[23]; 250 g ai/ha
  Pre-emerge phytotoxicity rating (0-100), crop damage, RICE: 90
